The values below come from patent publication US7781468B2, “Tyrosine derivatives substituted by N-arylacryloyl as agonists of hPPAR alpha and/or hPPAR gamma” (Beijing Molecule Science Technology Co., Ltd., priority 2004, dated 2010).

A word on the pEC50: it is −log10 of the EC50, conventionally taken in molar units. Low readings indicate a large EC50, high ones a small EC50. A word on the melting point: it is the temperature of the solid-liquid transition.

One data set concerns the target T1, Human PPARα (Homo sapiens, UniProt Q07869).
T1 construct: expressed in transfected cells; host or cells: 293-T cells
T1 sequence (Q07869 239-466 limits assumed): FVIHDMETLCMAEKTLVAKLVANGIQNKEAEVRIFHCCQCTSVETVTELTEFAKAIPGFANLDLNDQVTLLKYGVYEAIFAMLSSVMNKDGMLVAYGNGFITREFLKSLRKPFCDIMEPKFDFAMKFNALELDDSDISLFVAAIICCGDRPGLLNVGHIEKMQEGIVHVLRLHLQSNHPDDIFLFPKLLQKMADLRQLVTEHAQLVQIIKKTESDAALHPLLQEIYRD
The data set can be described thus: Activity assay on activating human PPARα (GAL4 chimeric receptor luciferase reporter, transient transfection in 293-T cells). The class given is cell-based. Particulars: for pEC50: activation of PPARα; for Photon number (×10^4) / Increased multiple vs control: compound 10 μM; for Photon number (×10^4): luciferase measured 24 h after administration, control 2.1; for Increased multiple vs control: vs 0.2‰ DMSO blank control. On the procedure:
(§1) The compounds were screened with respect to their functional effect of instantaneous transfection in 293-T cells, so that their capabilities of activating PPAR subtypes were determined. A chimeric receptor system as established in advance was used to compare the influence of receptor subtypes on the transcription activity of same target gene, with Rluc as an internal control to reduce the endogenous influence. Human PPARα and PPARγ ligand-binding domains were fused respectively with yeast transcription factor GAL4 DNA-binding domains, and then linked to expression vector pM of mammal, to thereby construct two plasmids pM-hPPARα/GAL4 and pM-PPARγ/GAL4. GAL4 DNA-binding area was linked to pB4-tk-luc, to thereby construct pB4-RES-tk-luc (a firefly luciferase reporter gene comprising GAL4 DNA-binding site). pRL-CMV-Rluc was used as an internal control to normalize transfection efficiency and endogenous influence.
(§2) 293-T cells were incubated in a 48-well plate at a cell density of 2-4×10^4/well, using a phenol red-free and antibiotic-free 1640 medium containing 10% defatted fetal calf serum (FCS). After culturing for 48 h, the medium was replaced with a phenol red-free and antibiotic-free 1640 medium containing 5% defatted FCS, and then three plasmids pM-hPPAR/GAL4, pB4-RES-tk-luc and pRL-CMV-Rluc pertaining to two subtypes were respectively co-transfected into the 293-T cells. The strength of luciferase was measured at the time of 24 h after administration, with 0.2‰ DMSO as a blank control.
On the technique in general: Reporter assays use an easily measured gene product as a stand-in for the process of interest.

The next data set concerns the target T2, Human PPARγ (Homo sapiens, UniProt P37231).
T2 construct: expressed in transfected cells; host or cells: 293-T cells
T2 sequence (P37231 238-503 limits assumed): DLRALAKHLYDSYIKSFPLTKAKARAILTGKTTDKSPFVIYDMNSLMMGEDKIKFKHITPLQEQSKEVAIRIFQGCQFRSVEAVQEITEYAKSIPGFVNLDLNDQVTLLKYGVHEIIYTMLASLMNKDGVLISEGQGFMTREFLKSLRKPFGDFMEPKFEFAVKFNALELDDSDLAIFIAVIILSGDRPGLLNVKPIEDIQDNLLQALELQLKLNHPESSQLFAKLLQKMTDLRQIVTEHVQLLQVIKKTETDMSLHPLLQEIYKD
Kind of data set: Activity assay on activating human PPARγ (GAL4 chimeric receptor luciferase reporter, transient transfection in 293-T cells). The class given is cell-based. Particulars: for pEC50: activation of PPARγ; for Photon number (×10^4) / Increased multiple vs control: compound 10 μM; for Photon number (×10^4): luciferase measured 24 h after administration, control 1.4; for Increased multiple vs control: vs 0.2‰ DMSO blank control. The method, then:
as §1, §2

SMILES strings stand for the structures. pEC50: −log10 of the molar value.

With `Cc1oc(-c2ccccc2)nc1CCOc1ccc(C[C@H](NC(=O)C=Cc2ccc(F)cc2F)C(=O)O)cc1` [Example 8, (2S)-2-[3-(2,4-difluorophenyl)-acryloylamino]-3-{4-[2-(5-methyl-2-phenyl-1,3-oxazol-4-yl)-ethoxy]-phenyl}-propanoic acid], at Human PPARα, the pEC50 was 5.30, the “Photon number (×10^4)” value is 18.8 ×10^4 and the “Increased multiple vs control” value is 8.9. At Human PPARγ, the negative logarithm of the EC50 (pEC50) was 5.94, the “Photon number (×10^4)” value was 27.6 ×10^4 and the “Increased multiple vs control” value is given as 19.7.

Regarding `Cc1oc(-c2ccccc2)nc1CCOc1ccc(C[C@H](NC(=O)C=Cc2ccc(F)c(F)c2)C(=O)O)cc1` [Example 7, (2S)-2-[3-(3,4-difluorophenyl)acryloylamino]-3-{4-[2-(5-methyl-2-phenyl-1,3-oxazol-4-yl)-ethoxy]-phenyl}-propanoic acid], at Human PPARα, the “Photon number (×10^4)” value is listed as 8.6 ×10^4 and the “Increased multiple vs control” value is on record as 4.1. For the same molecule, at Human PPARγ, the “Photon number (×10^4)” value is recorded as 29.0 ×10^4 and the “Increased multiple vs control” value is 20.7.

Turning to `Cc1ccc(C=CC(=O)N[C@@H](Cc2ccc(OCCc3nc(-c4ccccc4)oc3C)c(Br)c2)C(=O)O)cc1` [Example 10, (2S)-3-{3-bromo-4-[2-(5-methyl-2-phenyl-1,3-oxazol-4-yl)-ethoxy]-phenyl}-2-(3-p-tolylacryloylamino)-propanoic acid], at Human PPARγ, the “Photon number (×10^4)” value was 24.1 ×10^4 and the “Increased multiple vs control” value is on record as 17.2.

Turning to `Cc1oc(-c2ccccc2)nc1CCOc1ccc(C[C@H](NC(=O)C=Cc2ccc(F)cc2F)C(=O)O)cc1Br` [Example 12, (2S)-3-{3-bromo-4-[2-(5-methyl-2-phenyl-1,3-oxazol-4-yl)-ethoxy]-phenyl}-2-(3-(2,4-difluorophenyl)-acryloylamino)-propanoic acid], the melting point was in the range of 221 to 223 °C.

The molecule `Cc1oc(-c2ccccc2)nc1CCOc1ccc(C[C@H](NC(=O)C=Cc2ccc(F)cc2)C(=O)O)cc1` [Example 3, (2S)-2-(3-(4-fluorophenyl)acryloylamino)-3-{4-[2-(5-methyl-2-phenyl-1,3-oxazol-4-yl)-ethoxy]-phenyl}-propanoic acid] displayed a melting point of 188 to 190 °C.

`Cc1oc(-c2ccccc2)nc1CCOc1ccc(C[C@H](NC(=O)C=Cc2ccco2)C(=O)O)cc1` [Example 9, (2S)-2-(3-(furan-2-yl)-acryloylamino)-3-{4-[2-(5-methyl-2-phenyl-1,3-oxazol-4-yl)-ethoxy]-phenyl}-propanoic acid] displayed a melting point of 199 to 201 °C. On Human PPARα, the negative logarithm of the EC50 (pEC50) is 6.11, the “Photon number (×10^4)” value was 9.8 ×10^4 and the “Increased multiple vs control” value was determined as 4.7. Further, on Human PPARγ, the pEC50 is 7.13, the “Photon number (×10^4)” value is given as 23.7 ×10^4 and the “Increased multiple vs control” value is given as 16.9.
